{"source": "paper PMC6156427", "about": "“Characterization of NGFFYamide Signaling in Starfish Reveals Roles in Regulation of Feeding Behavior and Locomotory Systems” (Frontiers in Endocrinology, 2018)", "key": {"[1]": {"system": "apical muscle preparations from A. rubens", "details": "ACh 10^−6 M; ref [54], [57]; cited from earlier work", "method": "Investigation of the physiological roles of NG peptides in echinoderms was advanced most recently with the discovery of the precursor of the NG peptide NGFFYamide (NGFFY-NH2) in the starfish A. rubens. Research on neuropeptide systems in this species led to the discovery of the first echinoderm neuropeptides to be sequenced—the SALMFamide neuropeptides S1 and S2 ([45]). […] Here, NGFFYamide was tested in vitro to investigate its effect on apical muscle and tube foot preparations from A. rubens, using the same methods reported previously when testing other neuropeptides ([53], [54], [56]). Briefly, the apical muscle was dissected from the aboral body wall of starfish arms and cut into segments approximately 1 cm in length and cotton ligatures were tied at each end. […] Thus, NGFFYamide precursor-expressing cells are present in the coelomic lining of the apical muscle, a thickening of the longitudinally orientated body wall muscle layer located in an aboral and sagittal position in each arm."}, "[2]": {"system": "tube foot preparations from A. rubens", "details": "ACh 10^−6 M; ref [54], [57]; cited from earlier work", "method": "Here, NGFFYamide was tested in vitro to investigate its effect on apical muscle and tube foot preparations from A. rubens, using the same methods reported previously when testing other neuropeptides ([53], [54], [56]). Briefly, the apical muscle was dissected from the aboral body wall of starfish arms and cut into segments approximately 1 cm in length and cotton ligatures were tied at each end. […] Thus, application of NGFFYamide triggered phasic contractions of tube feet that were superimposed upon an increase in basal tone. Furthermore, there was concentration-dependency in the effect of NGFFYamide on both the amplitude and the frequency of the phasic contractions. This action of NGFFYamide on tube feet is interesting because it is the first neuropeptide that we have ..."}, "[3]": {"system": "NPS/CCAP-type receptor in the sea urchin S. purpuratus", "details": "ref [8]; cited from earlier work", "text": "Evidence that NG peptides are orthologs of vertebrate NPS-type neuropeptides was provided by analysis of the sequence of the NG peptide precursor in the cephalochordate B. floridae, which comprises two copies of a peptide (SFRNGVG) that is identical to the N-terminal region of NPS ([…]) ([34]). However, definitive proof was provided with the discovery that an NPS/CCAP-type receptor in the sea urchin S. purpuratus is activated by the neuropeptide NGFFFamide ([8]). Thus, a bilaterian neuropeptide family comprising NPS in vertebrates, NG peptides in invertebrate deuterostomes and ..."}, "[4]": {"system": "esophagus preparations from the sea urchin E. esculentus", "details": "Echinus esculentus; ref [35]; cited from earlier work", "text": "(§1) Having analyzed both the anatomical expression pattern and bioactivity of NGFFYamide in the starfish A. rubens, it is of interest to make comparisons with what is known about the physiological roles of NG peptides in other echinoderms. The first NG peptide to be identified in an echinoderm was NGIWYamide, which was isolated from the sea cucumber A. japonicus on account of its effect in causing contraction of longitudinal body wall muscles in this species ([42])."}, "[5]": {"system": "tube foot preparations from the sea urchin E. esculentus", "details": "Echinus esculentus; ref [35]; cited from earlier work", "text": "as §1"}, "[6]": {"system": "tube foot preparations from A. rubens", "experiment": "in vitro pharmacology, tube foot preparations", "design": "species or system Asterias rubens", "details": "read-out: half maximal response concentration (EC50), tonic contraction; tonic contraction of tube feet, 10^−9-10^−6 M; six measurements; 11°C; four-parameter curve", "method": "Here, NGFFYamide was tested in vitro to investigate its effect on apical muscle and tube foot preparations from A. rubens, using the same methods reported previously when testing other neuropeptides ([53], [54], [56]). Briefly, the apical muscle was dissected from the aboral body wall of starfish arms and cut into segments approximately 1 cm in length and cotton ligatures were tied at each end. Tube foot preparations were obtained by dissecting from starfish arms a small square-shaped piece of ambulacral body wall containing a single tube foot podium and its associated ampullae. […] A relaxant effect of NGFFYamide on apical muscle preparations was expressed as a percentage reversal of the maximal contraction induced by 10^−6 M ACh. […] For phasic contractions, peak amplitude and frequency were quantified over a 5-min recording period and expressed as mean amplitude and mean peaks/minute, respectively. For in vitro characterization of the effects of NGFFYamide on tube foot preparations, a concentration-response curve was fitted with a four-parameter curve and the EC50 value was calculated based on six measurements. The in vitro effect of NGFFYamide on basal tone was analyzed by one-way ANOVA using Bonferroni's multiple comparisons post-hoc test. […]"}, "[7]": {"system": "body wall mutable collagenous tissue", "details": "A. japonicus; ref [64]; cited from earlier work", "text": "as §1"}, "[8]": {"system": "intestine preparations", "details": "A. japonicus; ref [43]; cited from earlier work", "text": "as §1"}, "[9]": {"system": "longitudinal body wall muscle", "details": "A. japonicus; ref [43]; cited from earlier work", "text": "as §1"}, "[10]": {"system": "oocyte maturation and spawning", "details": "A. japonicus; ref [44]; cited from earlier work", "text": "as §1"}, "[11]": {"system": "tentacle preparations", "details": "A. japonicus; ref [43]; cited from earlier work", "text": "as §1"}, "[12]": {"system": "cockroach P. americana", "details": "ref [33]; cited from earlier work", "text": "(§2) Furthermore, there is substantial evidence that CCAP is one of several neuropeptides that regulate shedding of the exoskeleton (ecdysis) in arthropods. Thus, a dramatic increase in circulating levels of CCAP has been observed in two crustacean species during ecdysis ([26])."}, "[13]": {"system": "crustaceans", "details": "ref [25]; cited from earlier work", "text": "as §2"}, "[14]": {"system": "gut", "details": "cockroaches; ref [32], [83]; cited from earlier work", "text": "as §2"}, "[15]": {"system": "moth Manduca sexta", "details": "ref [28], [78], [79]; cited from earlier work", "text": "as §2"}, "[16]": {"system": "oviduct", "details": "Locusta migratoria; ref [82]; cited from earlier work", "text": "as §2"}, "[17]": {"system": "\"orphan\" G-protein coupled receptor GPR154", "details": "ref [65]; cited from earlier work", "text": "(§3) Thus, nothing was known about its physiological roles when NPS was first identified. […] Furthermore, evidence that the anxiolytic effect ..."}, "[18]": {"system": "mammals", "details": "ref [15], [18], [72]–[75]; cited from earlier work", "text": "as §3"}, "[19]": {"system": "mice", "details": "ref [9], cited from earlier work", "text": "as §3"}, "[20]": {"system": "rats", "details": "ref [9]; cited from earlier work", "text": "as §3"}, "[21]": {"system": "rodents", "details": "ref [76]; cited from earlier work", "text": "as §3"}}, "note": "No end group written: not given here."}
{"molecule": "CC(=O)OCC[N+](C)(C)C", "note": "[acetylcholine]", "values": [{"measurement": "contractant of starfish apical muscle", "setting": "[1]", "value": "known contractant"}, {"measurement": "contractant of starfish tube feet", "setting": "[2]", "value": "known contractant"}]}
{"molecule": "NGFFF-NH2 [NGFFFamide]", "values": [{"measurement": "activation of NPS/CCAP-type receptor", "setting": "[3]", "value": "activated"}, {"measurement": "contraction of esophagus preparations", "setting": "[4]", "value": "contraction"}, {"measurement": "contraction of tube foot preparations", "setting": "[5]", "value": "contraction"}]}
{"molecule": "NGFFY-NH2 [NGFFYamide]", "values": [{"measurement": "EC50", "setting": "[6]", "value": 14, "unit": "nM"}]}
{"molecule": "NGIWYamide", "values": [{"measurement": "effect on body wall mutable collagenous tissue", "setting": "[7]", "value": "stiffening"}, {"measurement": "spontaneous phasic contractions of intestine preparations", "setting": "[8]", "value": "inhibition"}, {"measurement": "contraction of longitudinal body wall muscle", "setting": "[9]", "value": "tonic contraction"}, {"measurement": "oocyte maturation and spawning", "setting": "[10]", "value": "induction of oocyte maturation and spawning"}, {"measurement": "contraction of tentacle preparations", "setting": "[11]", "value": "tonic contraction"}]}
{"molecule": "PFCNAFTGC-NH2 [CCAP, 9-residue neuropeptide first discovered in the crustacean Carcinus maenas]", "values": [{"measurement": "locomotor activity", "setting": "[12]", "value": "inhibition of locomotor activity"}, {"measurement": "cardioexcitatory effect", "setting": "[13]", "value": "cardioexcitatory"}, {"measurement": "gut contraction and secretion of digestive enzymes", "setting": "[14]", "value": "stimulation of gut contraction and secretion of digestive enzymes"}, {"measurement": "ecdysis motor program", "setting": "[15]", "value": "activates an ecdysis motor program"}, {"measurement": "oviduct contractions", "setting": "[16]", "value": "induction of oviduct contractions"}]}
{"molecule": "SFRNGVGTGMKKTSFQRAKS [NPS, 20-residue neuropeptide first discovered in rodents]", "values": [{"measurement": "ligand of GPR154", "setting": "[17]", "value": "endogenous ligand"}, {"measurement": "food intake (inhibition)", "setting": "[18]", "value": "inhibition of food intake"}, {"measurement": "anxiolytic-like effects", "setting": "[19]; mice exposed to stressful conditions", "value": "anxiolytic-like effects"}, {"measurement": "locomotor activity", "setting": "[19]", "value": "increases locomotor activity"}, {"measurement": "wakefulness", "setting": "[20]", "value": "increases wakefulness"}, {"measurement": "food intake (increase, one study)", "setting": "[21]", "value": "increase food intake"}]}
